{"source": "paper PMC12698182", "about": "“Bardoxolone methyl blocks the efflux of Zn^2+ by targeting hZnT1 to inhibit the proliferation and metastasis of cervical cancer” (Protein & Cell, 2025)", "key": {"hZnT1 [1]": {"biological_target": "T1, hZnT1 (Homo sapiens, UniProt Q9Y6M5, I96A)", "T1 construct": "gene SLC30A1; homodimer (ECD 271-312, CTD 345-507 visible); tags and borders only in supplement; transport assay in HEK-293F cells", "T1 sequence (Q9Y6M5 1-507 I96A)": "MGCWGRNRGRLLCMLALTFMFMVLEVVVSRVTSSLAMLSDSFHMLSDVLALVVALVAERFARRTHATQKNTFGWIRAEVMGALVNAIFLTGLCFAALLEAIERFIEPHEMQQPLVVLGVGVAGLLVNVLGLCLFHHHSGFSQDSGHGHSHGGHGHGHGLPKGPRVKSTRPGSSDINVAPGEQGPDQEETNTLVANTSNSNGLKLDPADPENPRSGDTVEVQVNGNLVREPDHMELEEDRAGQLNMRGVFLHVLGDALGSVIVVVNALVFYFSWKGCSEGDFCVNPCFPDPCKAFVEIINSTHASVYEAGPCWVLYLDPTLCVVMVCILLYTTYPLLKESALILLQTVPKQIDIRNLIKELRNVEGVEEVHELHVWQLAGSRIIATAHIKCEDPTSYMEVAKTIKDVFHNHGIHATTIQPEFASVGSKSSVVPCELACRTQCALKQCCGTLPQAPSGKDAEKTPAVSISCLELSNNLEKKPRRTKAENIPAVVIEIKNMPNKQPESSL", "experiment": "biolayer interferometry (BLI)", "conditions": "read-out: binding affinity"}, "hZnT1 [2]": {"biological_target": "T2, hZnT1 (Homo sapiens, UniProt Q9Y6M5, G258A)", "T2 construct": "gene SLC30A1; homodimer (ECD 271-312, CTD 345-507 visible); tags and borders only in supplement; transport assay in HEK-293F cells", "T2 sequence (Q9Y6M5 1-507 G258A)": "T1 sequence (Q9Y6M5 1-507 I96A) with A96I, G258A", "experiment": "biolayer interferometry (BLI)", "format": "binding"}, "hZnT1 [3]": {"biological_target": "T3, hZnT1 (Homo sapiens, UniProt Q9Y6M5)", "T3 construct": "gene SLC30A1; homodimer (ECD 271-312, CTD 345-507 visible); tags and borders only in supplement; transport assay in HEK-293F cells", "T3 sequence (Q9Y6M5 1-507)": "T1 sequence (Q9Y6M5 1-507 I96A) with A96I", "experiment": "FluoZin-3 fluorescence Zn2+ transport assay in HEK-293F cells", "format": "cell-based"}, "hZnT1 [4]": {"biological_target": "T3, hZnT1", "experiment": "biolayer interferometry (BLI)", "conditions": "read-out: binding affinity"}}, "note": "Changes are numbered by the printed parent chain."}
{"compound": "COC(=O)[C@]12CCC(C)(C)C[C@H]1[C@H]1C(=O)C=C3[C@@]4(C)C=C(C#N)C(=O)C(C)(C)[C@@H]4CC[C@@]3(C)[C@]1(C)CC2", "note": "[Bardoxolone methyl]", "values": [{"measurement": "Kd", "setting": "hZnT1 [1]", "value": 58.4, "unit": "µM"}, {"measurement": "binding affinity", "setting": "hZnT1 [2]", "value": "the mutation of G258A directly led to the affinity to be completely undetectable"}, {"measurement": "IC50", "setting": "hZnT1 [3]", "value": "18 ± 0.92", "unit": "µM"}, {"measurement": "Kd", "setting": "hZnT1 [4]", "value": 2.72, "unit": "µM"}]}
